Experimental data reported in ChEMBL document CHEMBL3120082, “Synthesis and in vitro anti-proliferative effects of 3-(hetero)aryl substituted 3-[(prop-2-ynyloxy)(thiophen-2-yl)methyl]pyridine derivatives on various cancer cell lines” (Bioorg Med Chem Lett, 2014).
Active and inactive are the calls of the source. The rule behind the calls is not given here.

Legend:
[1] = (§1) Cytotoxicity against human IMR32 cells assessed as cell viability at 10 uM after 24 hrs by MTT assay; type: functional; conditions: IMR-32, 24 h, read-out: GI
[2] = system: MDA-MB-231; assay: Cytotoxicity against estrogen receptor-negative human MDA-MB-231 cells assessed as cell viability at 10 uM after 24 hrs by MTT assay; type: functional; conditions: for inhibition of growth at 10 µM: MDA-MB-231, 24 h, read-out: GI
[3] = system: HepG2; assay: Cytotoxicity against human HepG2 cells assessed as cell viability at 10 uM after 24 hrs by MTT assay; type: functional; conditions: for inhibition of growth at 10 µM: HepG2, 24 h, read-out: GI
[4] = system: K562; assay: Cytotoxicity against human K562 cells assessed as cell viability at 10 uM after 24 hrs by MTT assay; type: functional; conditions: for inhibition of growth at 10 µM: K562, 24 h, read-out: GI
[5] = system: COLO 205; assay: Cytotoxicity against human COLO205 cells assessed as cell viability at 10 uM after 24 hrs by MTT assay; type: functional; conditions: for inhibition of growth at 10 µM: COLO 205, 24 h, read-out: GI
[6] = system: MCF7; assay: Cytotoxicity against estrogen receptor-positive human MCF7 cells assessed as cell viability at 10 uM after 24 hrs by MTT assay; type: functional; conditions: for inhibition of growth at 10 µM: MCF7, 24 h, read-out: GI
[7] = Cytotoxicity against human HEK293 cells assessed as cell viability at 10 uM after 24 hrs by MTT assay; type: cell-based; conditions: read-out: GI
[8] = system: MDA-MB-231; assay: Cytotoxicity against estrogen receptor-negative human MDA-MB-231 cells after 24 hrs by MTT assay; type: functional, cell-based; conditions: MDA-MB-231, 24 h
[9] = system: MCF7; assay: Cytotoxicity against estrogen receptor-positive human MCF7 cells after 24 hrs by MTT assay; type: functional, cell-based; conditions: MCF7, 24 h
[10] = system: IMR-32; assay: as §1; type: functional

SMILES | inhibition of growth at 10 µM [1] [%] | inhibition of growth at 10 µM [2] [%] | inhibition of growth at 10 µM [3] [%] | inhibition of growth at 10 µM [4] [%] | inhibition of growth at 10 µM [5] [%] | inhibition of growth at 10 µM [6] [%] | inhibition at 24 h, 10 µM [7] [%] | IC50 ([8]; read-out: IC50) [nM] | IC50 [9] [nM] | growth inhibition (GI) [10] | growth inhibition (GI) [2] | growth inhibition (GI) [3] | growth inhibition (GI) [4] | growth inhibition (GI) [5] | growth inhibition (GI) [6] | IC50 [8] [nM]
Clc1ncccc1C(OCC#Cc1ccc(I)cc1)c1cccs1 (stereo not given) | 60 | 52.2 | 54.2 | 48 | 39 | 45.6 | 0 |  |  |  |  |  |  |  |  | 
O=C(O)c1ccc(C#CCOC(c2cccs2)c2cccnc2Cl)cc1 (stereo not given) | 39.6 | 38.9 | 38.2 | 57.7 | 44 | 35.9 | 4.8 |  |  |  |  |  |  |  |  | 
CCOC(=O)c1c(C#CCOC(c2cccs2)c2cccnc2Cl)sc2c1CCCC2 (stereo not given) | 22.5 | 46.4 | 29.5 | 53 | 32.1 | 31.8 | -0.9 |  |  |  |  |  |  |  |  | 
Oc1ccccc1C#CCOC(c1cccs1)c1cccnc1Cl (stereo not given) | 34.4 | 70.8 | 13.6 | 40.6 | 28.5 | 67.7 | 6 | 1100 | 1510 |  |  |  |  |  |  | 
OC(c1cccs1)c1cccnc1Cl (stereo not given) |  |  |  |  |  |  |  |  |  | inactive | inactive | inactive | inactive | inactive | inactive | 
COc1cccc2c1C(=O)c1c(O)c3c(c(O)c1C2=O)C[C@@](O)(C(=O)CO)C[C@@H]3O[C@H]1C[C@H](N)[C@H](O)[C@H](C)O1 [DOXORUBICIN] |  |  |  |  |  |  |  |  | 440 |  |  |  |  |  |  | 650
O=[N+]([O-])c1ccccc1C#CCOC(c1cccs1)c1cccnc1Cl (stereo not given) | 53.2 | 48 | 46.2 | 18.9 | 16.5 | 34.8 | 0.1 |  |  |  |  |  |  |  |  | 
O=C1Nc2ccc(C#CCOC(c3cccs3)c3cccnc3Cl)cc2C1=O (stereo not given) | 58.4 | 72.3 | 44.8 | 61.1 | 49.3 | 71.9 | 0.8 | 990 | 1050 |  |  |  |  |  |  | 
O=C(O)c1ccccc1C#CCOC(c1cccs1)c1cccnc1Cl (stereo not given) | 38.1 | 47.9 | 33.1 | 40.2 | 34.7 | 35.9 | 2.7 |  |  |  |  |  |  |  |  | 
CCOC(=O)c1c[nH]nc1C#CCOC(c1cccs1)c1cccnc1Cl (stereo not given) | 30.9 | 35.3 | 34.3 | 54.8 | 45.8 | 33.8 | 0.4 |  |  |  |  |  |  |  |  | 
COc1ccc(C#CCOC(c2cccs2)c2cccnc2Cl)cc1 (stereo not given) | 20.7 | 70.1 | 13.9 | 33.8 | 31.6 | 64.7 | -1.1 | 1160 | 1720 |  |  |  |  |  |  | 
O=C(O)COC(c1cccs1)c1cccnc1Cl (stereo not given) |  |  |  |  |  |  |  |  |  | inactive | inactive | inactive | inactive | inactive | inactive | 
CCOC(=O)COC(c1cccs1)c1cccnc1Cl (stereo not given) |  |  |  |  |  |  |  |  |  | inactive | inactive | inactive | inactive | inactive | inactive | 
CCOC(=O)c1sc2c(c1C#CCOC(c1cccs1)c1cccnc1Cl)CCC2 (stereo not given) | 25.2 | 37.9 | 21.9 | 65.1 | 46 | 25 | -1.6 |  |  |  |  |  |  |  |  | 
Nc1ccccc1C#CCOC(c1cccs1)c1cccnc1Cl (stereo not given) | 47.6 | 73.3 | 36.2 | 43.8 | 37.8 | 69.3 | 3.2 | 950 | 1290 |  |  |  |  |  |  | 
